Results from ChEMBL document CHEMBL1909597, “Biological evaluation of glycosyl-isoindigo derivatives against the pathogenic agents of tropical diseases (malaria, Chagas disease, leishmaniasis and human African trypanosomiasis)” (Bioorg Med Chem Lett, 2011).

Experiments:
Trypanosoma cruzi = assay: Antiparasitic activity against trypomastigotes of Trypanosoma cruzi Tulahuen C2C4 expressing LacZ gene infected in rat L6 cells after 96 hrs; format: functional, organism-based; details: Tulahuen C2C4, L6, 96 h
Plasmodium falciparum = assay: Antiparasitic activity against Plasmodium falciparum K1 […] assessed as inhibition of parasite growth preincubated for 48 hrs before [3H]hypoxanthine addition measured after 24 hrs by [3H]hypoxanthine incorporation assay; format: functional, organism-based
Leishmania donovani = assay: Antiparasitic activity against amastigotes of Leishmania donovani MHOM/ET/67/L82 […] after 72 hrs by Alamar blue assay; format: functional, organism-based; details: MHOM/ET/67/L82, 72 h
L6 = assay: Cytotoxicity against rat L6 cells after 72 hrs by Alamar blue assay; format: cell-based; details: L6, 72 h
[1] = tested on: Trypanosoma brucei rhodesiense; assay: Antiparasitic activity against bloodstream form of Trypanosoma brucei rhodesiense STIB 900 […] after 72 hrs by Alamar blue assay; format: functional, organism-based; details: STIB 900, 72 h
[2] = Selectivity index, ratio of IC50 for rat L6 cells to IC50 for bloodstream form of Trypanosoma brucei rhodesiense STIB 900; format: toxicity, cell-based; details: read-out: Ratio IC50
[3] = Selectivity index, ratio of IC50 for rat L6 cells to IC50 for Trypanosoma cruzi Tulahuen C2C4 trypomastigotes; format: toxicity, cell-based; details: read-out: Ratio IC50
[4] = Selectivity index, ratio of IC50 for rat L6 cells to IC50 for Leishmania donovani MHOM/ET/67/L82 amastigotes; format: toxicity, cell-based; details: read-out: Ratio IC50
[5] = Selectivity index, ratio of IC50 for rat L6 cells to IC50 for Plasmodium falciparum K1; format: toxicity, cell-based; details: read-out: Ratio IC50

| IC50 (Trypanosoma cruzi) | IC50 [1] | Compound | IC50 (Plasmodium falciparum) | IC50 (Leishmania donovani) | IC50 (L6) | selectivity ratio [2] | selectivity ratio [3] | selectivity ratio [4] | selectivity ratio [5] |
| --- | --- | --- | --- | --- | --- | --- | --- | --- | --- |
| 19.3 µM | 0.88 µM | CC(=O)OC[C@H]1O[C@@H](N2C(=O)/C(=C3/C(=O)Nc4ncccc43)c3cc(Br)ccc32)[C@H](OC(C)=O)[C@@H](OC(C)=O)[C@@H]1OC(C)=O | > 7 µM | 0.84 µM | 10 µM | – | – | – | – |
| > 130 µM | 0.6 µM | CC(=O)OC[C@H]1O[C@@H](N2C(=O)/C(=C3/C(=O)Nc4ccc(OC(F)(F)F)cc43)c3ccccc32)[C@H](OC(C)=O)[C@@H](OC(C)=O)[C@@H]1OC(C)=O | > 7 µM | 11.1 µM | 124 µM | 206 | – | – | – |
| 2.55 µM | – | O=C(Cn1ccnc1[N+](=O)[O-])NCc1ccccc1 [BENZNIDAZOLE] | – | – | – | – | > 135 | – | – |
| – | – | CCCCCCCCCCCCCCCCOP(=O)([O-])OCC[N+](C)(C)C [MILTEFOSINE] | – | 0.37 µM | – | – | – | 265 | – |
| > 120 µM | 0.51 µM | CCCC(=O)c1ccc2c(c1)/C(=C1\C(=O)N([C@@H]3O[C@H](COC(C)=O)[C@@H](OC(C)=O)[C@H](OC(C)=O)[C@H]3OC(C)=O)c3ccc(Br)cc31)C(=O)N2 | 2.48 µM | 3.6 µM | 99 µM | 194 | – | 27.5 | 39.9 |
| – | – | CCN(CC)CCCC(C)Nc1ccnc2cc(Cl)ccc12 (stereo unspecified) [CHLOROQUINE] | – | – | – | – | – | – | 327 |
| 11.2 µM | 1.24 µM | CC(=O)OC[C@H]1O[C@@H](N2C(=O)/C(=C3/C(=O)Nc4ccccc43)c3ccccc32)[C@H](OC(C)=O)[C@@H](OC(C)=O)[C@@H]1OC(C)=O | > 8 µM | 1.93 µM | 4.53 µM | – | – | – | – |

| Compound | IC50 (Trypanosoma cruzi) | IC50 [1] | IC50 (Plasmodium falciparum) | IC50 (Leishmania donovani) | IC50 (L6) | selectivity ratio [2] | selectivity ratio [3] | selectivity ratio [4] | selectivity ratio [5] |
| --- | --- | --- | --- | --- | --- | --- | --- | --- | --- |
| Nc1nc(N)nc(Nc2ccc([As]3SCC(CO)S3)cc2)n1 (stereo unspecified) [MELARSOPROL] | – | 0.013 µM | – | – | – | 193 | – | – | – |
